Reference: patent US10597388B2, “Pyridazinone herbicides” (FMC CORPORATION, priority 2014, dated 2020)

Legend:
Assay type in all cases: in vivo
[1] = tested on: oilseed rape (Brassica napus); assay: Test C greenhouse herbicide test, pre- and postemergence
Summary of the method: (§1)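 Two application timings: at sowing into a soil/sand blend, and on 2–18 cm seedlings in peat-vermiculite potting mix. A non-phytotoxic, surfactant-containing solvent carried the compounds. Plants were compared with controls and rated visually on 0–100 after 13–15 d.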

[2] = tested on: corn (Zea mays); assay: as above
Summary of the method: as §1

[3] = tested on: lambsquarters (Chenopodium album); assay: as above
Summary of the method: as §1

[4] = tested on: waterhemp (common waterhemp, Amaranthus rudis); assay: as above
Summary of the method: as §1

[5] = tested on: wheat (winter wheat, Triticum aestivum); assay: as above
Summary of the method: as §1

[6] = tested on: morningglory (Ipomoea coccinea); assay: as above
Summary of the method: as §1

[7] = tested on: crabgrass, large (large crabgrass, Digitaria sanguinalis); assay: as above
Summary of the method: as §1

[8] = tested on: foxtail, giant (giant foxtail, Setaria faberii); assay: as above
Summary of the method: as §1

[9] = tested on: johnsongrass (Sorghum halepense); assay: as above
Summary of the method: as §1

[10] = tested on: kochia (Kochia scoparia); assay: Test A greenhouse herbicide test, pre- and postemergence
Summary of the method: (§2)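 Seeds sown in loam–sand blend got a preemergence directed soil spray of compound in non-phytotoxic solvent with surfactant. Postemergence treatment was given at 2–10 cm, one- to two-leaf stage. After ~10 d in greenhouse, injury was rated visually vs untreated controls, 0 (no effect) to 100 (complete control).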

[11] = tested on: barnyardgrass (Echinochloa crus-galli); assay: as above
Summary of the method: as §2

[12] = Postemergence, 31 g ai/ha, 0 to 100 scale (0 no effect, 100 complete control)
[13] = Postemergence, 125 g ai/ha, scale 0 to 100, 0 is no effect, 100 is complete control
[14] = Postemergence, 250 g ai/ha, scale 0 to 100, 0 no effect, 100 complete control, 13 to 15 d
[15] = postemergence, 62 g ai/ha, scale 0 to 100, 0 no effect, 100 complete control
[16] = Postemergence, 125 g ai/ha, visual rating after approx. 10 d, 0 to 100 scale (0 no effect, 100 complete control)
[17] = Postemergence, 500 g ai/ha, 0 to 100 scale, 0 is no effect, 100 is complete control
[18] = Preemergence, 125 g ai/ha, 0 to 100 scale where 0 is no effect and 100 is complete control
[19] = Preemergence, 500 g ai/ha, 0 to 100 scale, 0 no effect, 100 complete control
[20] = Postemergence, 31 g ai/ha, scale 0 to 100 (0 no effect, 100 complete control)
[21] = Postemergence, 62 g ai/ha, 0 to 100 scale (0 no effect, 100 complete control)
[22] = postemergence, 125 g ai/ha, scale 0 to 100, 0 no effect, 100 complete control
[23] = Postemergence, 125 g ai/ha, 0 to 100 scale where 0 is no effect and 100 is complete control
[24] = Postemergence, 500 g ai/ha, visual rating after approx. 10 d, 0 to 100 scale (0 no effect, 100 complete control)
[25] = Preemergence, 500 g ai/ha, 0 to 100 scale where 0 is no effect and 100 is complete control

Cc1ccc2sc(C)c(-c3c(OC(=O)C(C)(C)C)c(C)nn(C)c3=O)c2c1 [Compound 26]
Oilseed Rape plant response rating [1, 12]: 0 | Plant response rating, Oilseed Rape [1, 13]: 5 | Plant response rating, Oilseed Rape [1, 14]: 5 | Oilseed Rape plant response rating [1, 15]: 0 | Corn plant response rating [2, 12]: 0 | Plant response rating, Corn [2, 13]: 5 | Plant response rating, Corn [2, 14]: 5 | Corn plant response rating [2, 15]: 10 | Lambsquarters plant response rating [3, 12]: 75 | Plant response rating, Lambsquarters [3, 13]: 90 | Plant response rating, Lambsquarters [3, 14]: 98 | Lambsquarters plant response rating [3, 15]: 85 | Waterhemp plant response rating [4, 12]: 75 | Plant response rating, Waterhemp [4, 13]: 85 | Plant response rating, Waterhemp [4, 14]: 95 | Waterhemp plant response rating [4, 15]: 85 | Wheat plant response rating [5, 12]: 0 | Plant response rating, Wheat [5, 13]: 0 | Plant response rating, Wheat [5, 14]: 5 | Wheat plant response rating [5, 15]: 0 | Morningglory plant response rating [6, 12]: 98 | Plant response rating, Morningglory [6, 13]: 100 | Plant response rating, Morningglory [6, 14]: 100 | Morningglory plant response rating [6, 15]: 100 | Crabgrass, Large plant response rating [7, 12]: 5 | Plant response rating, Crabgrass, Large [7, 13]: 20 | Plant response rating, Crabgrass, Large [7, 14]: 25 | Crabgrass, Large plant response rating [7, 15]: 20 | Foxtail, Giant plant response rating [8, 12]: 15 | Plant response rating, Foxtail, Giant [8, 13]: 40 | Plant response rating, Foxtail, Giant [8, 14]: 65 | Foxtail, Giant plant response rating [8, 15]: 25 | Johnsongrass plant response rating [9, 12]: 5 | Plant response rating, Johnsongrass [9, 13]: 5 | Plant response rating, Johnsongrass [9, 14]: 5 | Johnsongrass plant response rating [9, 15]: 5 | Plant response rating, Kochia [10, 16]: 80 | Kochia plant response rating [10, 17]: 90 | Kochia plant response rating [10, 18]: 30 | Plant response rating, Kochia [10, 19]: 30 | Plant response rating, Barnyardgrass [11, 16]: 10 | Barnyardgrass plant response rating [11, 17]: 30 | Barnyardgrass plant response rating [11, 18]: 0 | Plant response rating, Barnyardgrass [11, 19]: 10

COC(=O)Oc1c(C)nn(C)c(=O)c1-c1ccc(F)c2ccccc12 [Compound 130]
Plant response rating, Oilseed Rape [1, 20]: 0 | Oilseed Rape plant response rating [1, 21]: 0 | Plant response rating, Oilseed Rape [1, 14]: 0 | Oilseed Rape plant response rating [1, 22]: 0 | Plant response rating, Corn [2, 20]: 5 | Corn plant response rating [2, 21]: 5 | Plant response rating, Corn [2, 14]: 15 | Corn plant response rating [2, 22]: 5 | Plant response rating, Lambsquarters [3, 20]: 90 | Lambsquarters plant response rating [3, 21]: 98 | Plant response rating, Lambsquarters [3, 14]: 100 | Lambsquarters plant response rating [3, 22]: 100 | Plant response rating, Waterhemp [4, 20]: 70 | Waterhemp plant response rating [4, 21]: 85 | Plant response rating, Waterhemp [4, 14]: 98 | Waterhemp plant response rating [4, 22]: 80 | Plant response rating, Wheat [5, 20]: 0 | Wheat plant response rating [5, 21]: 5 | Plant response rating, Wheat [5, 14]: 15 | Wheat plant response rating [5, 22]: 10 | Plant response rating, Morningglory [6, 20]: 75 | Morningglory plant response rating [6, 21]: 80 | Plant response rating, Morningglory [6, 14]: 100 | Morningglory plant response rating [6, 22]: 85 | Plant response rating, Crabgrass, Large [7, 20]: 10 | Crabgrass, Large plant response rating [7, 21]: 15 | Plant response rating, Crabgrass, Large [7, 14]: 60 | Crabgrass, Large plant response rating [7, 22]: 15 | Plant response rating, Foxtail, Giant [8, 20]: 20 | Foxtail, Giant plant response rating [8, 21]: 20 | Plant response rating, Foxtail, Giant [8, 14]: 70 | Foxtail, Giant plant response rating [8, 22]: 40 | Plant response rating, Johnsongrass [9, 20]: 5 | Johnsongrass plant response rating [9, 21]: 5 | Plant response rating, Johnsongrass [9, 14]: 20 | Johnsongrass plant response rating [9, 22]: 5 | Plant response rating, Kochia [10, 23]: 100 | Plant response rating, Kochia [10, 24]: 100 | Kochia plant response rating [10, 18]: 60 | Plant response rating, Kochia [10, 25]: 100 | Plant response rating, Barnyardgrass [11, 23]: 60 | Plant response rating, Barnyardgrass [11, 24]: 90 | Barnyardgrass plant response rating [11, 18]: 30 | Plant response rating, Barnyardgrass [11, 25]: 100
